pIC50: −log10 of the molar value.
How the values were obtained:
[1] = target: T1, LEDGF-Integrase interaction (Human immunodeficiency virus type 1 group M subtype B, UniProt P12497); assay: HTRF Interaction assay (S9118); design: species or system HIV; conditions: His6-tagged integrase and MBP-LEDGF integrase binding domain
T1 construct: His6-tagged integrase (78 nM final concentration); purchased Prof; Zeger Debyser, Katholieke Universiteit Leuven (supplied by an academic laboratory, not a commercial vendor)
Text: • Adachi, A., Gendelman, H., Koenig, S., Folks, T., Wiley, R., Rabson, A. and Martin, M (1986) Production of acquired immunodeficency syndrome-associated retrovirus in human and nonhuman cells transfected with an infectious molecular clone, J. Virol., 59, 284-291. • Cao J, Isaacson J, Patick A K, Blair W S. (2005) High-throughput human immunodeficiency virus type 1 (HIV-1) full replication assay that includes HIV-1 Vif as an antiviral target Antimicrobial Agents and Chemotherapy; 49(9), p 3833-3841. Assay to Measure the LEDGF-Integrase Integration Inhibitory Activity of Compounds of the Invention HTRF Interaction Assay (S9118)
An Homogeneous Time Resolved Fluorescence (HTRF) assay is performed in a manner similar to previous reports on HTRF protein assays as reviewed by Mathis (Clin. Chem., 2005). The assay procedure is performed as follows: reactions are performed in 20 μl final volume in 384-well black low volume microtiter plates (Greiner). The final reaction buffer contains 29 mM phosphase buffer (pH 7), 10 mM HEPES buffet (pH 7.4), 68.5 mM NaCl, 1.4 mM KCl, 400 mM KF 0.05% (w/v) pluronic acid (P104, Sigma Aldrich) and 1% (v/v) DMSO. His6-tagged integrase (78 nM final concentration) is incubated with […] fused to the Δ325 carboxy terminal integrase binding domain of LEDGF in the presence of compound for 2 hours at room temperature. Both these protein regents are supplied by Prof. Zeger Debyser of Katholleke Universiteit Leuven, Leuven, Belgium. The compounds are added at varying concentrations spanning a wide range from 0.1 up to 100 μM. Afterwards 8.3 nM of europium cryptate conjugated anti-MBP monoclonal antibody and 17 nM anti-His antibody conjugated with the acceptor fluorophore d2. Following a 2 hour room temperature incubation the plates are read on an EnVision™ microplate reader (Perkin Elmer) using an excitation wavelength of 320 nm. The ratio of fluorescence emitted at […] is used to assess the degree to which the protein-protein interaction had been inhibited.

[2] = test system: HIV-1 virus (NL4.3 strain); assay: MT-2 based antiviral assay (S8737E); format: cell-based; conditions: Human immunodeficiency virus 1, 72 h, read-out: Antiviral Activity (S8737E, μM), HIV-1 NL4.3 replication in MT2 cells, 3 days, β-Gal readout in JC53BL cells
Text: MT-2 Based Antiviral Assay (S8737E)
This assay is designed to determine the effects of small molecules on the replication of HIV-1 in the lymphobastoid cell line, MT2, and is able to detect the antiviral effect of compounds acting at any stage of the HIV-1 replication cycle. The assay, along with its associated cytotoxicity assay, was described in detail in 2005 in a paper by Cao et al (Antimicrobial Agents and Chemotherapy 2005; 49(9), p 3833-3841).
MT2 cells are infected with the HIV-1 virus (NL4.3 strain; Adachi et al., Journal of Virology 1986) and transferred to assay plates containing serial dilutions of compounds to be tested. The assay plates are incubated for 3 days (MT2) to allow for several rounds of viral replication/infection to take place. At the end of this time, supernatant is transferred into new plates containing JC53BL cells.
JC53BL cells express CXCR4, CCR5 and CD4 receptors, and HIV-1-LTR-β-Gal. Under normal culture conditions undetectable levels of β-Galactosidase are expressed, but in the presence of HIV-1, the viral Tat protein is able to activate the HIV-1-LTR in the JC53BL cells resulting in the increased expression of the β-Gal enzyme. The expression can be measured using the ‘FluorAce β-Galactosidase reporter’ assay. The levels of β-Gal are directly proportional to the levels of Tat (up to a threshold) allowing virus quantification. Compounds that inhibit virus replication will give rise to a reduced signal and a dose-response curve for each compound can be generated. This is then used to determine the IC50 for each compound, a measure of the compound's potency.

| SMILES | pIC50 ([1]; table values) | IC50 [2] | pIC50 [1] |
| --- | --- | --- | --- |
| Cc1nc2sc3c(c2c(-c2ccccc2CO)c1C(OC(C)(C)C)C(=O)O)CCCC3 (stereo not drawn) [Example 13] | 4.25 | 0.957 µM |  |
| Cc1nc2sc3c(c2c(-c2cccc(-c4nccn4C)c2)c1C(OC(C)(C)C)C(=O)O)CCCC3 (stereo not drawn) [Example 19] | 4.33 | 1.9 µM |  |
| CCOC(C(=O)O)c1c(C)nc2sc3c(c2c1-c1ccc(OC)nc1)CCCC3 (stereo not drawn) [Example 42] | < 4.00 | 18.1 µM |  |
| Cc1nc2sc3c(c2c(-c2cccc(-n4cccn4)c2)c1C(OC(C)(C)C)C(=O)O)CCCC3 (stereo not drawn) [Example 38] | 4.01 | 15.1 µM |  |
| Cc1nc2sc3c(c2c(-c2ccc(Cl)cc2)c1[C@H](OC(C)(C)C)C(=O)O)CCCC3 [Example 44, (2S)-tert-butoxy[4-(4-chlorophenyl)-2-methyl-5,6,7,8-tetrahydro[1]benzothieno[2,3-b]pyridin-3-yl]acetic acid] |  | 0.036 µM | 6.24 |
| Cc1nc2sc3c(c2c(-c2ccc(C(F)(F)F)cc2)c1[C@H](OC(C)(C)C)C(=O)O)CCCC3 [Example 50, (S)-2-(tert-butoxy)-2-(2-methyl-4-(4-(trifluoromethyl)phenyl)-5,6,7,8-tetrahydrobenzo[4.5]thieno[2,3-b]pyridin-3-yl)acetic acid] |  | 0.055 µM | 5.82 |
| Cc1nc2sc3c(c2c(-c2ccc(C#N)cc2)c1C(OC(C)(C)C)C(=O)O)CCCC3 (stereo not drawn) [Example 15] | 4.83 | 1.28 µM |  |
| COc1ncc(-c2c(C(OC(C)(C)C)C(=O)O)c(C)nc3sc4c(c23)CCCC4)cn1 (stereo not drawn) [Example 39] | < 4.00 | 15.5 µM |  |
| Cc1nc2sc3c(c2c(-c2ccc(Cl)cc2O)c1[C@H](OC(C)(C)C)C(=O)O)CCCC3 (single isomer, unassigned) [Atropisomer 46A] |  | 0.014 µM | 6.25 |
